{"source": "patent US10975077B2", "about": "(Novira Therapeutics, Inc., priority 2016, dated 2021)", "note": "pEC50: −log10 of the molar value."}
{"system": "HBV (encapsidated HBV DNA, HepG2.2.15 cells)", "assay": "HBV replication inhibition assay, BDNA assay in HepG2.2.15 cells", "format": "cell-based", "settings": "Hepatitis B virus, HepG2.2.15, Activity in BDNA-assay", "outline": "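HepG2.2.15 cells (stably integrated HBV, 40,000/well) treated with serially diluted compound in 0.5% DMSO for 6 days, medium and compound refreshed at day 3. DNase-treated supernatant lysed with proteinase K; encapsidated HBV DNA quantified by bDNA, percent inhibition versus DMSO controls, EC50 by nonlinear fit.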"}
{"smiles": "CN1CC(N2CCC(F)(F)CC2)Cn2nc3c(c2C1=O)CN(C(=O)Nc1ccc(F)c(Cl)c1)CC3", "note": "(stereo not drawn) [Compound 056, N-(3-chloro-4-fluorophenyl)-8-(4,4-difluoropiperidin-1-yl)-10-methyl-11-oxo-1,3,4,7,8,9,10,11-octahydro-2H-pyrido[4′,3′:3,4]pyrazolo[1,5-a][1,4]diazepine-2-carboxamide]", "pEC50": "6.30 to 7.00"}
{"smiles": "COC(=O)C1CCn2nc3c(c2C(=O)N1C)CN(C(=O)Nc1ccc(F)c(Cl)c1)CC3", "note": "(stereo not drawn) [Compound 057, methyl 2-((3-chloro-4-fluorophenyl)carbamoyl)-10-methyl-11-oxo-1,3,4,7,8,9,10,11-octahydro-2H-pyrido[4′,3′:3,4]pyrazolo[1,5-a][1,4]diazepine-9-carboxylate]", "pEC50": "6.30 to 7.00"}
{"smiles": "CN1C(=O)c2c3c(nn2CCC1C(=O)O)CCN(C(=O)Nc1ccc(F)c(Cl)c1)C3", "note": "(stereo not drawn) [Compound 058, 2-((3-chloro-4-fluorophenyl)carbamoyl)-10-methyl-11-oxo-1,3,4,7,8,9,10,11-octahydro-2H-pyrido[4′,3′:3,4]pyrazolo[1,5-a][1,4]diazepine-9-carboxylic acid]", "pEC50": "< 6.00"}
{"smiles": "CN(C)C(=O)C1CCn2nc3c(c2C(=O)N1C)CN(C(=O)Nc1ccc(F)c(Cl)c1)CC3", "note": "(stereo not drawn) [Compound 059, N2-(3-chloro-4-fluorophenyl)-N9,N9,10-trimethyl-11-oxo-1,3,4,7,8,9,10,11-octahydro-2H-pyrido[4′,3′:3,4]pyrazolo[1,5-a][1,4]diazepine-2,9-dicarboxamide]", "pEC50": "6.30 to 7.00"}
{"smiles": "CN1C(=O)c2c3c(nn2CCC1(C)CO)CCN(C(=O)Nc1ccc(F)c(Cl)c1)C3", "note": "(stereo not drawn) [Compound 061, N-(3-chloro-4-fluorophenyl)-9-(hydroxymethyl)-9,10-dimethyl-11-oxo-1,3,4,7,8,9,10,11-octahydro-2H-pyrido[4′,3′:3,4]pyrazolo[1,5-a][1,4]diazepine-2-carboxamide]", "pEC50": "7.00 to 9.00"}
{"smiles": "CN1C(=O)c2c3c(nn2CCC1(C)C(=O)O)CCN(C(=O)Nc1ccc(F)c(Cl)c1)C3", "note": "(stereo not drawn) [Compound 062, 2-((3-chloro-4-fluorophenyl)carbamoyl)-9,10-dimethyl-11-oxo-1,3,4,7,8,9,10,11-octahydro-2H-pyrido[4′,3′:3,4]pyrazolo[1,5-a][1,4]diazepine-9-carboxylic acid]", "pEC50": "< 6.00"}
{"smiles": "CN1CC(CN2CCOCC2)Cn2nc3c(c2C1=O)CN(C(=O)Nc1ccc(F)c(Cl)c1)CC3", "note": "(stereo not drawn) [Compound 063, N-(3-chloro-4-fluorophenyl)-10-methyl-8-(morpholinomethyl)-11-oxo-1,3,4,7,8,9,10,11-octahydro-2H-pyrido[4′,3′:3,4]pyrazolo[1,5-a][1,4]diazepine-2-carboxamide]", "pEC50": "7.00 to 9.00"}
{"smiles": "CN1CC(CN2CCCCC2)Cn2nc3c(c2C1=O)CN(C(=O)Nc1ccc(F)c(Cl)c1)CC3", "note": "(stereo not drawn) [Compound 064, N-(3-chloro-4-fluorophenyl)-10-methyl-11-oxo-8-(piperidin-1-ylmethyl)-1,3,4,7,8,9,10,11-octahydro-2H-pyrido[4′,3′:3,4]pyrazolo[1,5-a][1,4]diazepine-2-carboxamide]", "pEC50": "6.30 to 7.00"}
{"smiles": "CN(C)CC1CN(C)C(=O)c2c3c(nn2C1)CCN(C(=O)Nc1ccc(F)c(Cl)c1)C3", "note": "(stereo not drawn) [Compound 065]", "pEC50": "6.30 to 7.00"}
{"smiles": "CN1CC(CN2CCC(F)(F)C2)Cn2nc3c(c2C1=O)CN(C(=O)Nc1ccc(F)c(Cl)c1)CC3", "note": "(stereo not drawn) [Compound 066, N-(3-chloro-4-fluorophenyl)-8-((3,3-difluoropyrrolidin-1-yl)methyl)-10-methyl-11-oxo-1,3,4,7,8,9,10,11-octahydro-2H-pyrido[4′,3′:3,4]pyrazolo[1,5-a][1,4]diazepine-2-carboxamide]", "pEC50": "7.00 to 9.00"}
{"smiles": "CN1CC(CN2CCC(F)(F)C2)Cn2nc3c(c2C1=O)CN(C(=O)Nc1ccc(F)c(C#N)c1)CC3", "note": "(stereo not drawn) [Compound 067, N-(3-cyano-4-fluorophenyl)-8-((3,3-difluoropyrrolidin-1-yl)methyl)-10-methyl-11-oxo-1,3,4,7,8,9,10,11-octahydro-2H-pyrido[4′,3′:3,4]pyrazolo[1,5-a][1,4]diazepine-2-carboxamide]", "pEC50": "6.30 to 7.00"}
{"smiles": "CN1CC(CN2CCC(F)(F)C2)Cn2nc3c(c2C1=O)CN(C(=O)Nc1ccc(F)c(C(F)(F)F)c1)CC3", "note": "(stereo not drawn) [Compound 068, 8-((3,3-difluoropyrrolidin-1-yl)methyl)-N-(4-fluoro-3-(trifluoromethyl)phenyl)-10-methyl-11-oxo-1,3,4,7,8,9,10,11-octahydro-2H-pyrido[4′,3′:3,4]pyrazolo[1,5-a][1,4] diazepine-2-carboxamide]", "pEC50": "6.30 to 7.00"}
{"smiles": "CN1CC(CN2CCCC2)Cn2nc3c(c2C1=O)CN(C(=O)Nc1ccc(F)c(Cl)c1)CC3", "note": "(stereo not drawn) [Compound 069, N-(3-chloro-4-fluorophenyl)-10-methyl-11-oxo-8-(pyrrolidin-1-ylmethyl)-1,3,4,7,8,9,10,11-octahydro-2H-pyrido[4′,3′:3,4]pyrazolo[1,5-a][1,4]diazepine-2-carboxamide]", "pEC50": "7.00 to 9.00"}
{"smiles": "CN1CC(CN)Cn2nc3c(c2C1=O)CN(C(=O)Nc1ccc(F)c(Cl)c1)CC3", "note": "(stereo not drawn) [Compound 070, 8-(aminomethyl)-N-(3-chloro-4-fluorophenyl)-10-methyl-11-oxo-1,3,4,7,8,9,10,11-octahydro-2H-pyrido[4′,3′:3,4]pyrazolo[1,5-a][1,4]diazepine-2-carboxamide]", "pEC50": "7.00 to 9.00"}
{"smiles": "C[C@@H]1Cc2nn3c(c2CN1C(=O)Nc1cc(Cl)c(F)cc1Br)C(=O)N(CC(F)F)CCC3", "note": "[Compound 071, (R)—N-(2-bromo-5-chloro-4-fluorophenyl)-10-(2,2-difluoroethyl)-3-methyl-11-oxo-1,3,4,7,8,9,10,11-octahydro-2H-pyrido[4′,3′:3,4]pyrazolo[1,5-a][1,4]diazepine-2-carboxamide]", "pEC50": "7.00 to 9.00"}
{"smiles": "C[C@@H]1Cc2nn3c(c2CN1C(=O)Nc1ccc(F)c(Cl)c1)C(=O)N(CC(F)F)CCC3", "note": "[Compound 072, (3R)—N-(3-chloro-4-fluorophenyl)-10-(2,2-difluoroethyl)-3-methyl-11-oxo-1,3,4,7,8,9,10,11-octahydro-2H-pyrido[4′,3′:3,4]pyrazolo[1,5-a][1,4]diazepine-2-carboxamide]", "pEC50": "7.00 to 9.00"}
{"smiles": "C[C@@H]1Cc2nn3c(c2CN1C(=O)Nc1ccc(F)c(C(F)(F)F)c1)C(=O)N(CC(F)F)CCC3", "note": "[Compound 073, (R)-10-(2,2-difluoroethyl)-N-(4-fluoro-3-(trifluoromethyl)phenyl)-3-methyl-11-oxo-1,3,4,7,8,9,10,11-octahydro-2H-pyrido[4′,3′:3,4]pyrazolo[1,5-a][1,4]diazepine-2-carboxamide]", "pEC50": "7.00 to 9.00"}
{"smiles": "C[C@@H]1Cc2nn3c(c2CN1C(=O)Nc1ccc(F)c(Br)c1)C(=O)N(CC(F)F)CCC3", "note": "[Compound 074, (R)—N-(3-bromo-4-fluorophenyl)-10-(2,2-difluoroethyl)-3-methyl-11-oxo-1,3,4,7,8,9,10,11-octahydro-2H-pyrido[4′,3′:3,4]pyrazolo[1,5-a][1,4]diazepine-2-carboxamide]", "pEC50": "7.00 to 9.00"}
{"smiles": "C[C@@H]1Cc2nn3c(c2CN1C(=O)Nc1ccnc(Br)c1F)C(=O)N(CC(F)F)CCC3", "note": "[Compound 075]", "pEC50": "7.00 to 9.00"}
{"smiles": "C[C@@H]1Cc2nn3c(c2CN1C(=O)Nc1ccc(F)c(C#N)c1)C(=O)N(CC(F)F)CCC3", "note": "[Compound 076, (R)—N-(3-cyano-4-fluorophenyl)-10-(2,2-difluoroethyl)-3-methyl-11-oxo-1,3,4,7,8,9,10,11-octahydro-2H-pyrido[4′,3′:3,4]pyrazolo[1,5-a][1,4]diazepine-2-carboxamide]", "pEC50": "7.00 to 9.00"}
{"smiles": "Cc1cc(NC(=O)N2Cc3c(nn4c3C(=O)N(CC(F)F)CCC4)C[C@H]2C)ccc1F", "note": "[Compound 077, (R)-10-(2,2-difluoroethyl)-N-(4-fluoro-3-methylphenyl)-3-methyl-11-oxo-1,3,4,7,8,9,10,11-octahydro-2H-pyrido[4′,3′:3,4]pyrazolo[1,5-a][1,4]diazepine-2-carboxamide]", "pEC50": "7.00 to 9.00"}
{"smiles": "C[C@@H]1Cc2nn3c(c2CN1C(=O)Nc1cc(Cl)c(F)cc1F)C(=O)N(CC(F)F)CCC3", "note": "[Compound 078, (R)—N-(5-chloro-2,4-difluorophenyl)-10-(2,2-difluoroethyl)-3-methyl-11-oxo-1,3,4,7,8,9,10,11-octahydro-2H-pyrido[4′,3′:3,4]pyrazolo[1,5-a][1,4]diazepine-2-carboxamide]", "pEC50": "6.30 to 7.00"}
{"smiles": "CN1CC(CO)(CC(F)F)Cn2nc3c(c2C1=O)CN(C(=O)Nc1ccc(F)c(Cl)c1)CC3", "note": "(stereo not drawn) [Compound 091, N-(3-chloro-4-fluorophenyl)-8-(2,2-difluoroethyl)-8-(hydroxmethyl)-10-methyl-11-oxo-1,3,4,7,8,9,10,11-octahydro-2H-pyrido[4′,3′:3,4]pyrazolo[1,5-a][1,4]diazepine-2-carboxamide]", "pEC50": "6.30 to 7.00"}
{"smiles": "CN1CC(CN)Cn2nc3c(c2C1=O)CN(C(=O)Nc1ccc(F)c(C(F)(F)F)c1)CC3", "note": "(stereo not drawn) [Compound 093, 8-(aminomethyl)-N-[4-fluoro-3-(trifluoromethyl)phenyl]-10-methyl-11-oxo-1,3,4,7,8,9-hexahydropyrido[2,3]pyrazolo[2,4-b][1,4]diazepine-2-carboxamide]", "pEC50": "6.30 to 7.00"}
{"smiles": "CNCC1CN(C)C(=O)c2c3c(nn2C1)CCN(C(=O)Nc1ccc(F)c(C(F)(F)F)c1)C3", "note": "(stereo not drawn) [Compound 094, N-[4-fluoro-3-(trifluoromethyl)phenyl]-10-methyl-8-(methylaminomethyl)-11-oxo-1,3,4,7,8,9-hexahydropyrido[2,3]pyrazolo[2,4-b][1,4]diazepine-2-carboxamide]", "pEC50": "6.30 to 7.00"}
{"smiles": "CN1CC(CN)Cn2nc3c(c2C1=O)CN(C(=O)Nc1ccc(F)c(C#N)c1)CC3", "note": "(stereo not drawn) [Compound 095, 8-(aminomethyl)-N-(3-cyano-4-fluorophenyl)-10-methyl-11-oxo-1,3,4,7,8,9,10,11-octahydro-2H-pyrido[4′,3′:3,4]pyrazolo[1,5-a][1,4]diazepine-2-carboxamide]", "pEC50": "7.00 to 9.00"}
{"smiles": "CCC(O)C1CN(C)C(=O)c2c3c(nn2C1)CCN(C(=O)Nc1ccc(F)c(Br)c1)C3", "note": "[Compound 102_E1, (R*)—N-(3-bromo-4-fluorophenyl)-8-((S)-1-hydroxypropyl)-10-methyl-11-oxo-1,3,4,7,8,9,10,11-octahydro-2H-pyrido[4′,3′:3,4]pyrazolo[1,5-a][1,4]diazepine-2-carboxamide]", "pEC50": "7.00 to 9.00"}
